Experimental data published in US20150296779A1, “SUBSTITUTED DIHYDROPYRIDINES FOR SOMATIC EMBRYOGENESIS IN PLANTS” (STICHTING DIENST LANDBOUWKUNDIG ONDERZOEK, priority 2012, published 2015).

What was measured:
Assay type in all cases: in vivo, Arabidopsis thaliana
Arabidopsis seedlings [1] = test: Dose-response analysis for somatic embryo induction in containers (circa 30 seeds in 30 ml medium; FIG. 2, FIG. 4)
Excerpt: (§1) The chemical screen was based on a modified version of an Arabidopsis somatic embryogenesis protocol that uses germinated seeds as explants (see Kobayashi et al., 2010 Kobayashi T, Nagayama Y, Higashi K and Kobayashi M. (2010). Establishment of a tissue culture system for somatic embryogenesis from germinating embryos of Arabidopsis thaliana Plant Biotech. 27: 359-364). In the original protocol, seeds were germinated on solid medium for one day, then the embryos were removed from the seed coat and transferred to solid media containing 4.5 μM 2,4-D to stimulate somatic embryo development. In this example, the protocol is simplified by germinating and culturing the seeds continuously in liquid medium containing 1 μM 2,4-D. Under optimized culture conditions (circa 30 seeds in 30 ml medium) approximately 18% of Col0 seeds form somatic embryos.
(§2) Approximately 10 surface-sterilized Columbia (Col-0) seeds were added to each well. The seeds were stratified at 4° C. in the dark for two days and then grown in on a rotary shaker (100 rpm/min) on a 16 h/8 h day/night cycle at 25° C. The number of seedlings that formed somatic embryos was counted two weeks later. […] Positive compounds were analysed using ChemMine (http://bioweb.ucr.edu/ChemMineV2/), ChemSpider (http://www.chemspider.com/) and the ZINC database (http://zinc.docking.org) for analogues with a putative biological function. […]

Arabidopsis seedlings [2] = test: Testing of compounds for somatic embryogenesis activity in the presence of 2,4-D (FIG. 1); settings: in the presence of 1 μM 2,4-D
Excerpt: as §1, with “embryos. […]” for “embryos.”
as §2, with “The seeds were stratified at 4° C. in the dark for two days and then grown in on a rotary shaker (100 rpm/min) on a 16 h/8 h day/night cycle at 25° C.” left out

Arabidopsis seedlings [3] = test: Somatic embryogenesis at increasing 2,4-D concentrations with or without 25 μM C#5 (FIG. 3)
Method: All subsequent experiments were performed under the conditions described above, but using 100 ml containers (Greiner) containing 30 ml of medium media using approximately 30 seeds/container. All hormones were ordered from Duchefa and Dicamba from Sigma-Aldrich.
2,4-D is widely used to induce somatic embryogenesis from plant explant. In Arabidopsis immature zygotic embryos occasionally form somatic embryos when grown in basal medium, while germinating embryos or other vegetative tissues are unable to form embryos.

O=C(O)COc1ccc(Cl)cc1Cl [2,4-D, 2,4-dichlorophenoxyacetic acid, reference compound]
Col0 seeds that form somatic embryos (Arabidopsis seedlings [1]; liquid medium containing 1 μM 2,4-D alone, circa 30 seeds in 30 ml medium): approximately 18%

CC1=C(C(=O)OC2CCCC2)C(c2ccncc2)C2=C(CC(C)(C)CC2=O)N1 (stereo not drawn) [C#5, cyclopentyl 2,7,7-trimethyl-5-oxo-4-(4-pyridinyl)-1,4,5,6,7,8-hexahydro-3-quinolinecarboxylate]
level of SE, as measured by the percentage of seedlings with somatic embryos (Arabidopsis seedlings [2]): high percentage | somatic embryo formation in the absence of 2,4-D (Arabidopsis seedlings [3]; 25 μM C#5, 0 μM 2,4-D): not able to induce somatic embryo formation | somatic embryo formation at all of the tested 2,4-D concentrations (Arabidopsis seedlings [3]; 25 μM C#5, 2,4-D up to 2 μM, versus control (2,4-D only)): did enhance somatic embryo formation | threshold concentration of 2,4-D needed to achieve enhanced SE (Arabidopsis seedlings [3]; using 25 μM of C#5, seedlings grown in containers): about 0.4 μM | seedlings with somatic embryo development (Arabidopsis seedlings [1]; at about 10 to about 50 μM compound, compared to circa 5% of seedlings in the control): about 50%
